Data taken from US6939946B2, “Ring modified cyclic peptide analogs” (Eli Lilly and Company, priority 1998, dated 2005).
Numbered stars: 1 amine (or outer) side, 2 acyl side, 3 side chain; on linkers, the order of the positions; unused ones are H or OH. Bridge positions count the residues as written; N and C are the ends. Square brackets hold non-standard residues; d marks the D form. Peptide text beside a SMILES is read from it. * marks the point of attachment. ξ: configuration not given here. pTerphenylCO(4''-OnC5H11) = CCCCCOc1ccc(-c2ccc(-c3ccc(C(=O)*)cc3)cc2)cc1; Pro(3S-OH,4S-Me) = C[C@H]1CN[C@H](C(=O)O)[C@H]1O; hTyr(3R-OH) = N[C@H](C(=O)O)[C@H](O)Cc1ccc(O)cc1; X1 = CN1CCC(NC[C@H](N[*:1])C(=O)[*:2])CC1; Hyp = O=C(O)[C@@H]1C[C@@H](O)CN1; Thr(3ξ) = CC(O)[C@H](N)C(=O)O; dDap = NC[C@@H](N)C(=O)O; Dap = NC[C@H](N)C(=O)O

Tests used:
Details in all cases: in vitro
Histoplasma capsulatum = test system: Histoplasma capsulatum
C. parapsilosis = test system: C. parapsilosis
Cryptococcus neoformans = test system: Cryptococcus neoformans
C. albicans = test system: C. albicans
A. fumigatus = test system: A. fumigatus

Compound	Minimal Inhibitory Concentration MIC Histoplasma capsulatum (Histoplasma capsulatum)	Minimal Inhibitory Concentration MIC C. parapsilosis (C. parapsilosis)	Minimal Inhibitory Concentration MIC Cryptococcus neoformans (Cryptococcus neoformans)	Minimal Inhibitory Concentration MIC C. albicans (C. albicans)	Minimal Inhibitory Concentration MIC A. fumigatus (A. fumigatus)
C[C@@H]1[C@H](O)[C@@H](C)/C=C/C=C/C=C/C=C/C=C/C=C/C=C/[C@H](O[C@@H]2O[C@H](C)[C@@H](O)[C@H](N)[C@@H]2O)C[C@@H]2O[C@](O)(C[C@@H](O)C[C@@H](O)[C@H](O)CC[C@@H](O)C[C@@H](O)CC(=O)O[C@H]1C)C[C@H](O)[C@H]2C(=O)O [Ampho B, Amphotericin B, reference compound]	0.039 µg/mL	0.038 µg/mL	0.039 µg/mL	0.078 µg/mL	0.312 µg/mL
CCCCCOc1ccc(-c2ccc(-c3ccc(C(=O)N[C@H]4CNC(=O)[C@H](CN)NC(=O)[C@@H]5[C@@H](O)[C@@H](C)CN5C(=O)[C@H](C(C)O)NC(=O)[C@H]([C@H](O)Cc5ccc(O)cc5)NC(=O)[C@@H]5C[C@@H](O)CN5C(=O)[C@H](C(C)O)NC4=O)cc3)cc2)cc1 (stereo partly drawn) [Compound E8-8] ({pTerphenylCO(4''-OnC5H11)}-[Dap][Thr(3ξ)][Hyp][hTyr(3R-OH)][Thr(3ξ)][Pro(3S-OH,4S-Me)][Dap]; lactam 1-C)	0.312 µg/mL	0.625 µg/mL	>20 µg/mL	0.078 µg/mL	5.0 µg/mL
CCCCCOc1ccc(-c2ccc(-c3ccc(C(=O)N[C@H]4CNC(=O)[C@H](CNC5CCN(C)CC5)NC(=O)[C@@H]5[C@@H](O)[C@@H](C)CN5C(=O)[C@H](C(C)O)NC(=O)[C@H]([C@H](O)Cc5ccc(O)cc5)NC(=O)[C@@H]5C[C@@H](O)CN5C(=O)[C@H](C(C)O)NC4=O)cc3)cc2)cc1 (stereo partly drawn) [Compound E8-9] ({pTerphenylCO(4''-OnC5H11)}-[Dap][Thr(3ξ)][Hyp][hTyr(3R-OH)][Thr(3ξ)][Pro(3S-OH,4S-Me)][X1]; lactam 1-C)	0.625 µg/mL	5.0 µg/mL	>20 µg/mL	0.156 µg/mL	5.0 µg/mL
CCCCCOc1ccc(-c2ccc(-c3ccc(C(=O)N[C@H]4CCN(CCC)NC(=O)[C@@H]5[C@@H](O)[C@@H](C)CN5C(=O)[C@H](C(C)O)NC(=O)[C@H]([C@H](O)Cc5ccc(O)cc5)NC(=O)[C@@H]5C[C@@H](O)CN5C(=O)[C@H](C(C)O)NC4=O)cc3)cc2)cc1 (some centres unmarked) [E2-11(c)]	0.312 µg/mL	1.25 µg/mL	–	0.312 µg/mL	0.156 µg/mL
CCCCCOc1ccc(-c2ccc(-c3ccc(C(=O)N[C@@H]4CNC(=O)CNC(=O)[C@@H]5[C@@H](O)[C@@H](C)CN5C(=O)[C@H](C(C)O)NC(=O)[C@H]([C@H](O)Cc5ccc(O)cc5)NC(=O)[C@@H]5C[C@@H](O)CN5C(=O)[C@H](C(C)O)NC4=O)cc3)cc2)cc1 (stereo partly drawn) [E7-6(a)] ({pTerphenylCO(4''-OnC5H11)}-[dDap][Thr(3ξ)][Hyp][hTyr(3R-OH)][Thr(3ξ)][Pro(3S-OH,4S-Me)]G; lactam 1-C)	>20 µg/mL	>20 µg/mL	>20 µg/mL	>20 µg/mL	>20 µg/mL
CCCCCOc1ccc(-c2ccc(-c3ccc(C(=O)N[C@H]4CNC(=O)CNC(=O)[C@@H]5[C@@H](O)[C@@H](C)CN5C(=O)[C@H](C(C)O)NC(=O)[C@H]([C@H](O)Cc5ccc(O)cc5)NC(=O)[C@@H]5C[C@@H](O)CN5C(=O)[C@H](C(C)O)NC4=O)cc3)cc2)cc1 (stereo partly drawn) [E7-6(b)] ({pTerphenylCO(4''-OnC5H11)}-[Dap][Thr(3ξ)][Hyp][hTyr(3R-OH)][Thr(3ξ)][Pro(3S-OH,4S-Me)]G; lactam 1-C)	1.25 µg/mL	>20 µg/mL	>20 µg/mL	0.312 µg/mL	5.0 µg/mL
